Experimental findings from EP2982745A1, “Method for expanding immune cells” (Johann Wolfgang Goethe-Universität, Frankfurt am Main, priority 2014, dated 2016) are described below.

For one series, the system named is NKL cell line. In words: Proliferation assay of NKL cell line (cell counts). Format: cell-based. Particulars: IL-2/-15/SPV-106 (5µM); already after 3 days of culture; counted at 3, 6 and 10 days; n = 7; figure 1. The method, then:
(§1) NKL cell line was grown in Iscove's Modified Dulbecco's Medium (IMDM-Lonza) supplemented with 20% fetal bovine serum and recombinant human interleukine 2 (IL-2, 100 U/ml). Proliferation assay was performed by culturing 2x10^5 NKL cells/ml (96 multiwell; Nunc Thermo Scientific) in 200 µl growth medium supplemented with IL-2 (100 U/ml); IL-2/-15 (10 ng/ml); or IL-2/-15/SPV-106 5µM. Cells were counted and culture medium was changed every three days. Primary NK cells were isolated from peripheral blood of healthy donors using different methods of NK cell isolation (such as Easy Sep Human NK Cell Enrichment Kit, Stem cell Technologies or Human NK Cell Negative Selection Kit, Miltenyi). Proliferation assay was performed by culturing 2x10^6 primary NK cells/ml (24 multiwell ) in 1 ml growth medium supplemented with IL-2 (100 U/ml)/IL-15 (10 ng/ml); or IL-2/-15/SPV-106 5µM. Cells were counted and culture medium was changed every three days. Average of relative cell counts was determined microscopically using Trypan blue staining to exclude death or damaged cells.
NKL cells were cultured in growth medium for 10 days in presence of IL-2, IL-2/-15, or IL-2/-15/SPV-106 (5µM). SPV-106 is the selective activator of histone acetylase PCAF. At 3, 6 and 10 days cells were counted. Average cell number (x 10^4) is shown in the graph of figure 1 (n = 7 at each time point). […]

For series [1], the system named is Primary NK cells. Description: Proliferation assay of primary NK cells (relative cell counts, Trypan blue). The settings on record: IL-2/-15/SPV-106 at 5 µM; after 10 days of culture; n = 3; figure 2. Format: cell-based, human. The method, then:
as §1
Primary NK cells isolated from peripheral blood were cultured in growth medium for 10 days in presence of IL-2/-15, or IL-2/-15/SPV-106 (5µM). At 3, 6 and 10 days cells were counted. Average of relative cell counts in comparison of 100% at day 0 is shown in the graph of figure 2 (n = 3 at each time point).

Series [2] concerns Primary NK cells. In words: NK cell subset distribution during expansion (flow cytometry). Format: cell-based, human. Particulars: IL-2/-15/SPV-106 at 5µM; 3, 6 and 10 days; n = 3; figure 3. As to the method: as §1
Primary NK cells were cultured in growth medium for 10 days in presence of IL-2/-15, IL 2/-15, or IL-2/-15/ SPV-106 (at 5µM). At 3, 6 and 10 the NK cell subset distribution (CD56^high : CD56^dim) was analysed by flow cytometry. Average of the NK cell subset ratio is shown in the graph of figure 3 (n = 3 at each time point).
On the technique in general: A flow cytometer gives signals particle by particle.

The next series concerns K562 target cells. In words: Europium release cytotoxicity assay of expanded NK cells. Format: cell-based, human. The settings on record: NK cells expanded by cytokines and 5µM SPV-106; E/T ratios 2.5:1, 5:1, 10:1; 4 h; figure 4. The text has this:
Effector cells were generated prepared as described above. As target cells, K562, a human chronic myelogenous leukemia cell line, […], were maintained in culture in RPMI 1640 medium supplemented with 10% fetal bovine serum. The medium was changed three times a week, and the cells were in the log phase of growth when used as targets in cytotoxicity assays. About 5 x10^6 target cells were washed in saline to reduce extracellular Ca^+2 content. The cell pellet was resuspended in 1 ml of labeling buffer supplemented with […] Eu(DH3C00)^3+, 100 mM DTPA, and 0.5 mg of dextran sulfate. This cell suspension was incubated for 20 min at room temperature with occasional shaking. The labeling process was stopped by the addition of […] of 100 mM CaCl2 solution per ml. After 5 min of continued incubation, the cells were washed three times in 30 ml of repair buffer and then one to two times in 10 ml of medium and were finally resuspended in CM at a concentration of 5 x 10^4 cells/ml. […] The percentage of specific cytotoxicity was calculated as follows: ((experimental release (counts)-spontaneous release (counts)) : (maximal release (counts)-spontaneous release (counts)) x 100.
Killing activity of K562 target cells was assessed by Europium Assay as described in the following Material and Methods section.

For `CCCCCCCCCCCCCCC=C(C(=O)OCC)C(=O)OCC` [SPV-106], in the series with NKL cell line, the “NKL cell line proliferation (average cell number)” value was “enhances NKL cell line proliferation”. The “primary NK cell proliferation (average of relative cell counts in comparison of 100% at day 0)” value in the series on Primary NK cells [1] is on record as “enhances primary NK cell proliferation”. For the same compound, the “NK cell subset distribution (CD56^high : CD56^dim)” value with Primary NK cells [2] is listed as “did not change the naturally occurring NK subset distribution”. For the same compound, in the series with K562 target cells, the “cytotoxic capacity (killing activity of K562 target cells)” value is “retained cytotoxic capacity”.
